Results reported in EP0393973A1, “Antitumor Agent Indicated for lung cancer” (priority 1989, dated 1990).

Legend:
[1] = system: platelet aggregation; assay: Suppression of platelet aggregation; conditions: substance per se
[2] = system: sarcoma 180; conditions: oral administration to mice bearing sarcoma 180; cited from earlier work
[3] = Observation of gastric mucosa after oral dosing of normal rats; conditions: rat, in vivo
Description: It was therefore assumed that a massive dose of citral or lemongrass oil which contains citral as its principal constituent would adversely affect normal cells. • (2) Instead of dosing lemongrass oil directly to normal rats, lemongrass oil or citral in β-cyclodextrin clathrates was mixed with feed.

[4] = system: chicken embryos; conditions: cited from earlier work

In the case of `CC(C)=CCCC(C)=CC=O` [Citral, citral], the platelet aggregation [1] is given as “strongly suppresses”, the “growth of cancer cells” value [2] is given as “suppresses growth of cancer cells” and the “findings on the gastric mucosa” value [3] is given as “petechiae were observed on the gastric mucosa”. The teratogenicity [4] was “teratogenic”.
